In patent US7713994B2 (Wyeth LLC, priority 2005, dated 2010):
pIC50: −log10 of the molar value. Read-outs that look alike come from different tables or passages of the source.

Assays:
BT474 = test: Cytotoxicity assay (SRB), BT474; format: cell-based
Procedure, shortened: (§1)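 Cells seeded overnight at 37 °C, 7% CO2 (BT474 12000, HCT-116 4000, LoVo and MCF-7 6000 cells/well) in RPMI 1640 with 5% FBS, then exposed to compound dilutions for 3 days (BT474 6 days). Survival versus untreated controls by TCA fixation and SRB staining, absorbance 540 nm.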

cyclin E/CDK2 enzyme = molecular target: T1, cyclin E/CDK2 enzyme (Homo sapiens, UniProt P24941); test: CDK2 ELISA kinase assay (phospho-Rb ser 795 detection); format: biochemical
T1 construct: made in house; host or cells: Sf9 insect cells, recombinant baculovirus
Procedure, shortened: (§2)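 GST-Rb C-terminal fragment coated on plates; partially purified Sf9-expressed cyclin D1/CDK4, cyclin E/CDK2 or cyclin B/CDK1 with 200 μM ATP, pH 7.5 HEPES/MgCl2 buffer, 1 h at 30 °C; screen compound final 10 μg/ml. Phospho-Rb Ser795 detected by antibody ELISA (TMB, A450); % of control, IC50 from background-subtracted inhibition curves.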

MCF-7 = test: Cytotoxicity assay (SRB), MCF-7; format: cell-based; details: MCF-7 cells, SRB, read-out: In Vitro Cellular Activity IC50 MCF-7
Procedure, shortened: as §1

LoVo = test: Cytotoxicity assay (SRB), LoVo; format: cell-based; details: LoVo cells, SRB, read-out: In Vitro Cellular Activity IC50 LOVO
Procedure, shortened: as §1

cyclin D1/cdk 4 enzyme = molecular target: T2, cyclin D1/cdk 4 enzyme (Homo sapiens, UniProt P11802); test: CDK4 ELISA kinase assay (phospho-Rb ser 795 detection); format: biochemical
T2 construct: made in house; host or cells: Sf9 insect cells, recombinant baculovirus
Procedure, shortened: as §2

HCT-116 = test: Cytotoxicity assay (SRB), HCT-116; format: cell-based; details: HCT116 cells, SRB, read-out: In Vitro Cellular Activity IC50 HCT116
Procedure, shortened: as §1

cyclin B/CDK1 enzyme = molecular target: T3, cyclin B/CDK1 enzyme (Homo sapiens, UniProt P06493); test: CDK1 ELISA kinase assay (phospho-Rb ser 795 detection); format: biochemical
T3 construct: purchased New England BioLabs; host or cells: Sf9 insect cells, recombinant baculovirus
Procedure, shortened: as §2

[1] = In Vitro Enzyme Assays, read-out: CDK2 IC50
[2] = In Vitro Enzyme Assays, 200 μM ATP, read-out: CDK4 IC50
[3] = In Vitro Enzyme Assays, read-out: CDK1 IC50
[4] = Homo sapiens, BT-474, 144 h, BT474 cells, SRB, 6 days; read-out: In Vitro Cellular Activity IC50 BT474
[5] = Homo sapiens, MCF7, 72 h, three days
[6] = Homo sapiens, LoVo, 72 h, three days
[7] = Homo sapiens, HCT-116, 72 h, three days
[8] = Homo sapiens, BT-474, 144 h, BT474 cells, 6 days, SRB; read-out: In Vitro Cellular Activity IC50 BT474
[9] = In Vitro Enzyme Assay, cyclin E/CDK2, read-out: CDK2 IC50
[10] = Homo sapiens, MCF7, 72 h, 3 days
[11] = Homo sapiens, LoVo, 72 h, 3 days
[12] = In Vitro Enzyme Assay, cyclin D1/cdk 4, read-out: CDK4 IC50
[13] = Homo sapiens, HCT-116, 72 h, 3 days
[14] = In Vitro Enzyme Assay, cyclin B/CDK1, read-out: CDK1 IC50

T2 sequence (P11802 whole entry, species assumed): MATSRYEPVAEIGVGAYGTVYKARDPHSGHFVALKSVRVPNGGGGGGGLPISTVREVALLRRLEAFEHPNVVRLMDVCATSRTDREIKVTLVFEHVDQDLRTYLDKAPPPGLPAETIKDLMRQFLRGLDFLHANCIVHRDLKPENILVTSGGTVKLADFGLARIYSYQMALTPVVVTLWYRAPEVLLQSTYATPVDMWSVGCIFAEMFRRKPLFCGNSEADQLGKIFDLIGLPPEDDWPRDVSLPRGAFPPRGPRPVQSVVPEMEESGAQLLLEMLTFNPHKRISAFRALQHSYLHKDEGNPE
T2 sequence (P24385 whole entry partner, species assumed): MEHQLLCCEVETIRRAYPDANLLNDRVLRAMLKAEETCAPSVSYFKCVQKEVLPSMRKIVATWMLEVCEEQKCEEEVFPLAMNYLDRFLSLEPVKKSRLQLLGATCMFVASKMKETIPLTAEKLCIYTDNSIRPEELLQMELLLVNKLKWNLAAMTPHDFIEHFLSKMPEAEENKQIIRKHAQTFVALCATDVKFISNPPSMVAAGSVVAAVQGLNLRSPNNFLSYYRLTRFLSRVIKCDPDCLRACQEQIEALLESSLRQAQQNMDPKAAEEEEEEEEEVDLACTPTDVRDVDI
T3 sequence (P06493 whole entry): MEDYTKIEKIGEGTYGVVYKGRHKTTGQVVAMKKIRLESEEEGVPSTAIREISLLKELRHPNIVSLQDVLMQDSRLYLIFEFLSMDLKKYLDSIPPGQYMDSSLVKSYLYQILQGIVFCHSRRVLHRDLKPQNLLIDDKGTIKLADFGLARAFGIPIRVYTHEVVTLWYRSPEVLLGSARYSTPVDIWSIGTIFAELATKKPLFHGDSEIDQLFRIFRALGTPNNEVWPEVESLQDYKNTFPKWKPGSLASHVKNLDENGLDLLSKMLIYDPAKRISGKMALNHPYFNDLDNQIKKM
T3 sequence (P14635 whole entry partner): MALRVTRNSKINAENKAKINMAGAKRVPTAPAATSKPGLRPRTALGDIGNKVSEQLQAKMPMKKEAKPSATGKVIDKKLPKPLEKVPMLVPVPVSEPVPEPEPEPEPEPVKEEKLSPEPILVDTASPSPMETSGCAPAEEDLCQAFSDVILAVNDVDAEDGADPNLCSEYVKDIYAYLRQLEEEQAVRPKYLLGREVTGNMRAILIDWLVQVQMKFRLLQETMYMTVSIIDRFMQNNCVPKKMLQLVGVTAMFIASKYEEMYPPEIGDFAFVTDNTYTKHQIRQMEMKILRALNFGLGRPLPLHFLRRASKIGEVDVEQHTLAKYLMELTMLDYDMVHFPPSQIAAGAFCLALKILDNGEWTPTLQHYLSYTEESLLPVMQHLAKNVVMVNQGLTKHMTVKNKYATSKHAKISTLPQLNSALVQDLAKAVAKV

SMILES	pIC50 (cyclin E/CDK2 enzyme; [1])	pIC50 (cyclin D1/cdk 4 enzyme; [2])	pIC50 (cyclin B/CDK1 enzyme; [3])	pIC50 (BT474; [4])	pIC50 (MCF-7; [5])	pIC50 (LoVo; [6])	pIC50 (HCT-116; [7])	pIC50 (BT474; [8])	pIC50 (MCF-7; [10])	pIC50 (LoVo; [11])	pIC50 (HCT-116; [13])	also measured
CCCOc1ccc(CN/C=C2\C(=O)NC(=O)c3ccc(I)cc32)nc1Br [Example 379, (Z)-4-(((6-Bromo-5-propoxypyridin-2-yl)methylamino)methylene)-6-iodoisoquinoline-1,3(2H,4H)-dione]	< 4.30	6.16	< 4.30									pIC50 (BT474; BT474 cells, SRB, 6 days; read-out: In Vitro Cellular Activity IC50 BT474): 5.85; pIC50 (MCF-7; three days): 4.85; pIC50 (LoVo; three days): 5.59; pIC50 (HCT-116; three days): 5.68
CCCOc1ccc(CN/C=C2\C(=O)NC(=O)c3ccc(-c4ccc(F)c(F)c4)cc32)cc1O [Example 194, (4Z)-6-(3,4-Difluorophenyl)-4-{[(3-hydroxy-4-propoxybenzyl)amino]methylene}-isoquinoline-1,3(2H,4H)-dione]	< 4.30	4.80	< 4.30	< 4.30	5.04	< 4.30	< 4.30					
Cc1ncsc1C=Cc1ccc2c(c1)C(=CNCc1ccc(S(N)(=O)=O)cc1)C(=O)NC2=O [Example 659, 4-[({6-[2-(4-Methyl-thiazol-5-yl)-vinyl]-1,3-dioxo-2,3-dihydro-1H-isoquinolin-4-ylidenemethyl}-amino)-methyl]-benzenesulfonamide]								4.64	4.39	< 4.30	4.59	pIC50 (cyclin E/CDK2 enzyme; [9]): 4.74; pIC50 (cyclin D1/cdk 4 enzyme; [12]): 6.36; pIC50 (cyclin B/CDK1 enzyme; [14]): < 4.30
CC1(C)Oc2cc(CN/C=C3\C(=O)NC(=O)c4ccc(Br)cc43)cc(OC(=O)C3CC3)c2O1 [Example 873, 6-({[(Z)-(6-Bromo-1,3-dioxo-2,3-dihydroisoquinolin-4(1H)-ylidene)methyl]amino}methyl)-2,2-dimethyl-1,3-benzodioxol-4-yl cyclopropanecarboxylate]								4.37	4.53	4.39	4.61	pIC50 (cyclin E/CDK2 enzyme; In Vitro Enzyme Assay, read-out: CDK2 IC50): 4.61; pIC50 (cyclin D1/cdk 4 enzyme; In Vitro Enzyme Assay, read-out: CDK4 IC50): < 4.30; pIC50 (cyclin B/CDK1 enzyme; In Vitro Enzyme Assay, read-out: CDK1 IC50): 5.72
CN(C)CC1CCN(c2ccc(N/C=C3\C(=O)NC(=O)c4ccc(I)cc43)cc2)CC1 [Example 454, (4Z)-4-{[(4-{4-[(Dimethylamino)methyl]piperidin-1-yl}phenyl)amino]methylene}-6-iodoisoquinoline-1,3(2H,4H)-dione]	< 4.30	6.44	< 4.30					4.98	4.94	4.98	5.13	
CCCOc1cnc(CNC=C2C(=O)NC(=O)c3ccc(Br)cc32)cc1O [Example 365, 4-{[(4-Hydroxy-5-propoxy-pyridin-2-ylmethyl)-amino]-methylene}-6-bromo-4H-isoquinoline-1,3-dione]	5.72	7.15	< 4.30	6.12	5.92	6.00	5.89					
COc1ccc(CNC=C2C(=O)NC(=O)c3ccc(C=Cc4ccccc4)cc32)cc1O [Example 825, 4-[(3-Hydroxy-4-methoxy-benzylamino)-methylene]-6-styryl-4H-isoquinoline-1,3-dione]								4.61	4.91	4.66	4.92	pIC50 (cyclin E/CDK2 enzyme; [9]): 4.44; pIC50 (cyclin D1/cdk 4 enzyme; [12]): 7.70; pIC50 (cyclin B/CDK1 enzyme; [14]): < 4.30
CC(CO)N1CCN(c2ccc(N/C=C3\C(=O)NC(=O)c4ccc(I)cc43)cc2)CC1 (centres unmarked) [Example 398, (4Z)-4-[({4-[4-(2-Hydroxy-1-methylethyl)piperazin-1-yl]phenyl}amino)methylene]-6-iodoisoquinoline-1,3(2H,4H)-dione]	< 4.30	6.74	4.67					5.21	5.36	5.20	5.64	
CC(C)N1CCN(c2ccc(N/C=C3\C(=O)NC(=O)c4ccc(-c5ccsc5)cc43)cn2)CC1 [Example 417, (4Z)-4-({[6-(4-Isopropylpiperazin-1-yl)pyridin-3-yl]amino}methylene)-6-(3-thienyl)isoquinoline-1,3(2H,4H)-dione]	< 4.30	7.52	< 4.30					5.55	5.49	5.51	5.89	
COc1ccc(CN(C)/C=C2\C(=O)NC(=O)c3ccc(Br)cc32)cc1O [Example 163, (4Z)-6-Bromo-4-{[(3-hydroxy-4-methoxybenzyl)(methyl)amino]methylene}isoquinoline-1,3(2H,4H)-dione]	4.35	< 4.30	< 4.30	4.42	4.42	4.47	4.42					
CCCOc1ccc(CN/C=C2\C(=O)NC(=O)c3ccc(-c4cccc(F)c4)cc32)cc1O [Example 193, (4Z)-6-(3-Fluorophenyl)-4-{[(3-hydroxy-4-propoxybenzyl)amino]methylene}-isoquinoline-1,3(2H,4H)-dione]	< 4.30	5.85	< 4.30	< 4.30	5.36	< 4.30	4.80					
C=C(CN(C)C)C(=O)Nc1ccc(CN/C=C2\C(=O)NC(=O)c3ccc(I)cc32)cc1O [Example 338, 2-[(Dimethylamino)methyl]-N-[2-hydroxy-4-({[(Z)-(6-iodo-1,3-dioxo-2,3-dihydroisoquinolin-4(1H)-ylidene)methyl]amino}methyl)phenyl]acrylamide]	5.55	7.00	4.86	5.70	6.03	6.06	6.02					
CC1(C)Oc2cc(CN/C=C3\C(=O)NC(=O)c4ccc(Br)cc43)cc(O)c2O1 [Example 224, (4Z)-6-Bromo-4-({[(7-hydroxy-2,2-dimethyl-1,3-benzodioxol-5-yl)methyl]amino}methylene)isoquinoline-1,3(2H,4H)-dione]	5.40	6.77	4.34	5.02	5.13	5.10	5.19					
O=C1NC(=O)c2ccc(I)cc2/C1=C/Nc1ccc(N2CCC(CO)CC2)cc1 [Example 434, (4Z)-4-[({4-[4-(Hydroxymethyl)piperidin-1-yl]phenyl}amino)methylene]-6-iodoisoquinoline-1,3(2H,4H)-dione]	< 4.30	< 4.30	4.39					5.09	4.50	5.09	5.35	
COc1ccc(-c2ccc3c(c2)/C(=C/Nc2ccc(N4CCN(C)CC4)cc2)C(=O)NC3=O)cc1 [Example 114, (4Z)-6-(4-methoxyphenyl)-4-({[4-(4-methylpiperazin-1-yl)phenyl]amino}methylene)-isoquinoline-1,3(2H,4H)-dione]	< 4.30	5.13	< 4.30	5.30	5.20	5.19	5.72					
CC(=O)Oc1cc(CN/C=C2\C(=O)NC(=O)c3ccc(Br)cc32)cc2c1OC(C)(C)O2 [Example 268, 6-({[(Z)-(6-Bromo-1,3-dioxo-2,3-dihydroisoquinolin-4(1H)-ylidene)methyl]amino}methyl)-2,2-dimethyl-1,3-benzodioxol-4-yl acetate]	4.63	4.46	5.92	< 4.30	4.46	4.33	4.54					
CN1CCC(N(C)c2ccc(N/C=C3\C(=O)NC(=O)c4ccc(Br)cc43)cc2)C1 (centres unmarked) [Example 245, (4Z)-6-Bromo-4-[({4-[methyl(1-methylpyrrolidin-3-yl)amino]phenyl}amino)methylene]isoquinoline-1,3(2H,4H)-dione]	< 4.30	5.70	< 4.30	5.08	5.52	5.18	5.47					
